Experimental findings from ChEMBL document CHEMBL2331204, “Fluorinated N,N'-diarylureas as AMPK activators” (Bioorg Med Chem Lett, 2013) are described below.

In assay [1] the target is 5'-AMP-activated protein kinase catalytic subunit alpha-1 (Homo sapiens) (UniProt Q13131). As to the kind of experiment: Activation of AMPKalpha in human LS 174T cells assessed as phosphorylation at T172 at 1 to 3 uM by Western blotting analysis relative to urea-3,4-diCl. In kind it is cell-based. The following applies: LS174T. On the technique in general: In western blotting, separated proteins are transferred to a membrane and probed.
Chain of 5'-AMP-activated protein kinase catalytic subunit alpha-1 (Homo sapiens) (Q13131 whole entry, looked up): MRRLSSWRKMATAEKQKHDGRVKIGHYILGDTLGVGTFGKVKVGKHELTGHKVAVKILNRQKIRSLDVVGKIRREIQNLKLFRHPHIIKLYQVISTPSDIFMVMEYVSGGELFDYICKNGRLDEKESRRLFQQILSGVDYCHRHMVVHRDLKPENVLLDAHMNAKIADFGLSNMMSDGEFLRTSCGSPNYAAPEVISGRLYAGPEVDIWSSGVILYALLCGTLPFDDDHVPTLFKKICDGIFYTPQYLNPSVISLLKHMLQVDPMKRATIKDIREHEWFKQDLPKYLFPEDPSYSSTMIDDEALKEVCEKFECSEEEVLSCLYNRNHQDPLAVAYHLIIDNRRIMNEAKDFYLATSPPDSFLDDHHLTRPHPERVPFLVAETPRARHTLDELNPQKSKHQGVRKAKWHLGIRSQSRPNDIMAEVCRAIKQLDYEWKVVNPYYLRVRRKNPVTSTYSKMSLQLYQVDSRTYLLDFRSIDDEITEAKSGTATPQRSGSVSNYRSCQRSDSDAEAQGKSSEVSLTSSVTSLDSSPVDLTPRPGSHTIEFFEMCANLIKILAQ

A further assay concerns SW480. As to the kind of experiment: Cytotoxicity against human SW480 cells assessed as growth inhibition after 2 to 4 days. In kind it is functional, cell-based.
Assay [2] concerns LS174T. As to the kind of experiment: Activation of AKT in human LS 174T cells assessed as phosphorylation at Ser473 at 3 uM by Western blotting analysis. Format: cell-based.
Assay [3] has as its system LS174T. As to the kind of experiment: Inhibition of p70S6K phosphorylation in human LS 174T cells by Western blotting analysis. Format: cell-based.
The subject of assay [4] is LS174T. As to the kind of experiment: Cytotoxicity against human LS 174T cells assessed as growth inhibition after 2 to 4 days. In kind it is functional, cell-based.
Assay [5] addresses 5'-AMP-activated protein kinase catalytic subunit alpha-1 (Homo sapiens) (UniProt Q13131). As to the kind of experiment: Activation of AMPKalpha in human LS 174T cells assessed as phosphorylation at T172 at 1 to 3 uM by Western blotting analysis. Format: cell-based. The following applies: LS174T.
Assay [6] deals with LS174T. As to the kind of experiment: Inhibition of p70S6K in human LS 174T cells assessed as decrease in S6 phosphorylation by Western blotting analysis. Format: cell-based.

Active and inactive are the calls of the source. The rule behind the calls is not given here.

Take `O=C(Nc1cc(F)cc(F)c1)Nc1cccc(SC(F)(F)F)c1`: the fold change (FC) in assay [1] was 1.83.

Take `O=C(Nc1ccc(SC(F)(F)F)cc1)Nc1cc(Cl)c(Cl)c(Cl)c1`: the fold change (FC) in assay [1] was found to be 2.32. On the same count and under the same terms, next, `O=C(Nc1ccc(SC(F)(F)F)cc1)Nc1cccc(F)c1`: 0.74. Still for that read-out and setting: next, `O=C(Nc1ccc(SC(F)(F)F)cc1)Nc1cc(F)c(F)c(F)c1F`: 2.48. Still for that read-out and setting: with `O=C(Nc1ccc(SC(F)(F)F)cc1)Nc1c(F)c(F)c(C(=O)O)c(F)c1F` the figure was 0.86. Consider `O=C(Nc1ccc(SC(F)(F)F)cc1)Nc1cc(F)cc(F)c1`, for which the fold change (FC) in assay [1] was determined as 1.14. Consider `O=C(Nc1ccc(SC(F)(F)F)cc1)Nc1ccc(C(F)(F)F)cc1`, for which, in assay [1], the fold change (FC) was found to be 1.19. The same measure, in the same setting: with `O=C(Nc1ccc(SC(F)(F)F)cc1)Nc1ccc(F)c(Cl)c1` the figure was 1.05; with `O=C(Nc1ccc(OC(F)(F)F)cc1)Nc1cc(Cl)c(Cl)c(Cl)c1`, 0.96; with `O=C(Nc1ccc(SC(F)(F)F)cc1)Nc1cccc(Cl)c1F`, 0.72. On the same count and under the same terms, next, `O=C(Nc1ccc(SC(F)(F)F)cc1)Nc1cc(Cl)cc(Cl)c1`: 1.59; `O=C(Nc1cc(Cl)cc(Cl)c1)Nc1cccc(SC(F)(F)F)c1`: 1.94. On the same count and under the same terms, with `O=C(Nc1ccc(SC(F)(F)F)cc1)Nc1ccc(SC(F)(F)F)c(Cl)c1` the figure was 0.93; with `O=C(Nc1ccc(SC(F)(F)F)cc1)Nc1ccc(F)c(C(F)(F)F)c1`, 1.52. Consider `O=C(Nc1ccc(SC(F)(F)F)cc1)Nc1ccc(F)c(F)c1`, for which the fold change (FC) in assay [1] was 1.11. With `O=C(Nc1ccc(SC(F)(F)F)cc1)Nc1ccc(Cl)c(Cl)c1`, the “growth inhibition (GI)” value with SW480 and in the assay with LS174T [4] was “Active” in each case. Also, the result with LS174T [2] was inactive. Further, the inhibition result in the assay with LS174T [3] and with LS174T [6] was “Active” in each case. Further, the result in assay [5] was Active.

For the compound `N#Cc1cc(NC(=O)Nc2ccc(SC(F)(F)F)cc2)ccc1F`, in assay [1], the fold change (FC) was 0.96.

`CNC(=O)c1cc(Oc2ccc(NC(=O)Nc3ccc(Cl)c(C(F)(F)F)c3)cc2)ccn1`: the inhibition result in the assay with LS174T [3] and in the assay on LS174T [6] was “Active” each time. Further, the result in assay [5] was inactive. For `O=C(Nc1ccc(OC(F)(F)F)cc1)Nc1cc(Cl)cc(Cl)c1`, the fold change (FC) in assay [1] was found to be 0.82. Still for that read-out and setting: with `O=C(Nc1ccc(SC(F)(F)F)cc1)Nc1ccc(Cl)c(C(F)(F)F)c1` the figure was 1.64; with `O=C(Nc1ccc(SC(F)(F)F)cc1)Nc1cc(F)c(F)cc1F`, 1.21; with `O=C(Nc1ccc(OC(F)(F)F)cc1)Nc1cc(F)c(F)c(F)c1F`, 0.8. Still for that read-out and setting: with `O=C(Nc1ccc(OC(F)(F)F)cc1)Nc1cc(F)c(F)c(F)c1` the figure was 0.99.

With `O=C(Nc1ccc(OC(F)(F)F)cc1)Nc1ccc(C(F)(F)F)cc1`, the fold change (FC) in assay [1] is 2.37. In the case of `O=C(Nc1ccc(C(F)(F)F)cc1)Nc1cc(F)c(F)c(F)c1`, in assay [1], the fold change (FC) is 4. Still for that read-out and setting: with `O=C(Nc1ccc(OC(F)(F)F)cc1)Nc1cc(F)cc(F)c1` the figure was 1.44.

Take `O=C(Nc1ccc(Cl)cc1)Nc1ccc(SC(F)(F)F)cc1`: in assay [1], the fold change (FC) worked out at 0.71. `N#Cc1ccc(NC(=O)Nc2ccc(SC(F)(F)F)cc2)cc1`: the fold change (FC) in assay [1] stood at 1.05.

For the compound `O=C(Nc1ccc(SC(F)(F)F)cc1)Nc1cc(F)c(F)c(F)c1`, the “growth inhibition (GI)” value in the assay on SW480 and with LS174T [4] was “Active” each time. Further, the fold change (FC) in assay [1] turned out to be 2.02. On to `O=C(Nc1ccc(OC(F)(F)F)cc1)Nc1ccc(SC(F)(F)F)c(Cl)c1`, for which the fold change (FC) in assay [1] came to 2.6. On the same count and under the same terms, next, `O=C(Nc1ccc(C(F)(F)F)cc1)Nc1cccc(SC(F)(F)F)c1`: 2.16.
